Measured values: the NIST ThermoML archive (doi:10.1021/je0501585)
± gives the expanded uncertainty stated by the source.

Key:
[1] = Liquid; for viscosity / speed of sound: 101 kPa; for viscosity: Capillary tube (Ostwald / Ubbelohde) method; for speed of sound: Linear variable-path acoustic interferometer; for mass density: 101.33 kPa, Pycnometric method
[2] = xn = mol fraction of the nth substance listed; conditions: 101 kPa, Liquid, x2 = 0; for viscosity: Capillary tube (Ostwald / Ubbelohde) method; for excess molar volume: Direct dilatometry; for speed of sound: Linear variable-path acoustic interferometer

Row | SMILES | viscosity ([1]; 303.15 K) | speed of sound ([1]; 303.15 K) | mass density ([1]; 303.15 K) | viscosity ([1]; 308.15 K) | speed of sound ([1]; 308.15 K) | mass density ([1]; 308.15 K) | viscosity ([1]; 313.15 K) | speed of sound ([1]; 313.15 K) | mass density ([1]; 313.15 K) | vapor or sublimation pressure ([1]; 410 K) | vapor or sublimation pressure ([1]; 445.7 K) | viscosity ([2]; 303.15 K) | excess molar volume ([2]; 303.15 K) | speed of sound ([2]; 303.15 K) | viscosity ([2]; 308.15 K) | excess molar volume ([2]; 308.15 K) | speed of sound ([2]; 308.15 K) | viscosity ([2]; 313.15 K) | excess molar volume ([2]; 313.15 K) | speed of sound ([2]; 313.15 K)
1 | Cc1ccc(C)cc1 [1,4-dimethylbenzene] | 0.566 ± 0.016 mPa·s | 1283.7 ± 5.2 m/s | 852.3 ± 2.3 kg/m3 | 0.537 ± 0.015 mPa·s | 1271 ± 5.2 m/s | 847.9 ± 2.3 kg/m3 | 0.513 ± 0.015 mPa·s | 1260 ± 5.2 m/s | 843.6 ± 2.2 kg/m3 | 97.3 ± 4.9 kPa | – | – | – | – | – | – | – | – | – | –
2 | CCCCCCCCCC [decane] | 0.786 ± 0.021 mPa·s | 1210 ± 5.2 m/s | 722.3 ± 1.9 kg/m3 | 0.717 ± 0.019 mPa·s | 1189 ± 5.2 m/s | 718.2 ± 1.9 kg/m3 | 0.694 ± 0.019 mPa·s | 1175.3 ± 5.2 m/s | 714.7 ± 1.9 kg/m3 | – | 97.3 ± 4.9 kPa | – | – | – | – | – | – | – | – | –
3 | CCCCCCCCCC [decane] + Cc1ccc(C)cc1 | – | – | – | – | – | – | – | – | – | – | – | 0.786 ± 0.021 mPa·s | 0 ± 6e-09 m3/mol | 1210 ± 5.2 m/s | 0.717 ± 0.019 mPa·s | 0 ± 6e-09 m3/mol | 1189 ± 5.2 m/s | 0.694 ± 0.019 mPa·s | 0 ± 6e-09 m3/mol | 1175.3 ± 5.2 m/s
